Laboratory results taken from ChEMBL document CHEMBL4138123, “Design, synthesis and biological evaluation of novel pyrazolochalcones as potential modulators of PI3K/Akt/mTOR pathway and inducers of apoptosis in breast cancer cells” (Eur J Med Chem, 2017).

Tests used:
Type in all cases: functional
NCI-H226 [1] = experiment: Cytotoxicity against human NCI-H226 cells assessed as growth inhibition after 48 hrs by sulforhodamine B assay; details: NCI-H226, 48 h
HT-29 [2] = experiment: Cytotoxicity against human HT-29 cells assessed as growth inhibition after 48 hrs by sulforhodamine B assay; details: HT-29, 48 h
KM12 [3] = experiment: Cytotoxicity against human KM12 cells assessed as growth inhibition after 48 hrs by sulforhodamine B assay; details: KM12, 48 h
SF-268 = experiment: Cytotoxicity against human SF268 cells assessed as growth inhibition after 48 hrs by sulforhodamine B assay; details: SF-268, 48 h; for CC50: read-out: LC50 (the source's name)
U-251 = experiment: Cytotoxicity against human U251 cells assessed as growth inhibition after 48 hrs by sulforhodamine B assay; details: U-251, 48 h
OVCAR-5 = experiment: Cytotoxicity against human OVCAR5 cells assessed as growth inhibition after 48 hrs by sulforhodamine B assay; details: OVCAR-5, 48 h
NCI/ADR-RES = experiment: Cytotoxicity against human NCI/ADR-RES cells assessed as growth inhibition after 48 hrs by sulforhodamine B assay
PC-3 = experiment: Cytotoxicity against human PC3 cells assessed as growth inhibition after 48 hrs by sulforhodamine B assay; details: PC-3, 48 h
Hs-578T = experiment: Cytotoxicity against human Hs 578T cells assessed as growth inhibition after 48 hrs by sulforhodamine B assay
BT-549 = experiment: Cytotoxicity against human BT549 cells assessed as growth inhibition after 48 hrs by sulforhodamine B assay; details: BT-549, 48 h
CCRF-CEM [4] = experiment: Cytotoxicity against human CCRF-CEM cells assessed as cell growth at 0.01 uM after 48 hrs by sulforhodamine B assay relative to control; details: read-out: Activity
SNB-19 = experiment: Cytotoxicity against human SNB19 cells assessed as cell growth at 0.01 uM after 48 hrs by sulforhodamine B assay relative to control; details: SNB-19, 48 h, read-out: Activity
HT-29 [5] = experiment: Cytotoxicity against human HT-29 cells assessed as cell growth at 0.01 uM after 48 hrs by sulforhodamine B assay relative to control; details: HT-29, 48 h, read-out: Activity
NCI-H226 [6] = experiment: Cytotoxicity against human NCI-H226 cells assessed as cell growth at 0.01 uM after 48 hrs by sulforhodamine B assay relative to control; details: NCI-H226, 48 h, read-out: Activity
RXF 393 [7] = experiment: Cytotoxicity against human RXF393 cells assessed as cell growth at 0.01 uM after 48 hrs by sulforhodamine B assay relative to control; details: RXF 393, 48 h, read-out: Activity
CCRF-CEM [8] = experiment: Cytotoxicity against human CCRF-CEM cells assessed as cell growth at 0.1 uM after 48 hrs by sulforhodamine B assay relative to control; details: read-out: Activity
K562 = experiment: Cytotoxicity against human K562 cells assessed as cell growth at 0.1 uM after 48 hrs by sulforhodamine B assay relative to control; details: K562, 48 h, read-out: Activity
UACC-257 [9] = experiment: Cytotoxicity against human UACC257 cells assessed as cell growth at 0.1 uM after 48 hrs by sulforhodamine B assay relative to control; details: UACC-257, 48 h, read-out: Activity
OVCAR-8 = experiment: Cytotoxicity against human OVCAR8 cells assessed as cell growth at 0.1 uM after 48 hrs by sulforhodamine B assay relative to control; details: OVCAR-8, 48 h, read-out: Activity
SK-OV-3 [10] = experiment: Cytotoxicity against human SKOV3 cells assessed as cell growth at 0.1 uM after 48 hrs by sulforhodamine B assay relative to control; details: SK-OV-3, 48 h, read-out: Activity
MDA-MB-231 = experiment: Cytotoxicity against human MDA-MB-231 cells assessed as cell growth at 0.1 uM after 48 hrs by sulforhodamine B assay relative to control; details: MDA-MB-231, 48 h, read-out: Activity
HT-29 [11] = experiment: Cytotoxicity against human HT-29 cells assessed as cell growth at 1 uM after 48 hrs by sulforhodamine B assay relative to control; details: HT-29, 48 h, read-out: Activity
KM12 [12] = experiment: Cytotoxicity against human KM12 cells assessed as cell growth at 1 uM after 48 hrs by sulforhodamine B assay relative to control; details: KM12, 48 h, read-out: Activity
UACC-257 [13] = experiment: Cytotoxicity against human UACC257 cells assessed as cell growth at 1 uM after 48 hrs by sulforhodamine B assay relative to control; details: UACC-257, 48 h, read-out: Activity
UACC-62 = experiment: Cytotoxicity against human UACC62 cells assessed as cell growth at 1 uM after 48 hrs by sulforhodamine B assay relative to control; details: UACC-62, 48 h, read-out: Activity
786-0 = experiment: Cytotoxicity against human 786-0 cells assessed as cell growth at 1 uM after 48 hrs by sulforhodamine B assay relative to control; details: 786-0, 48 h, read-out: Activity
RXF 393 [14] = experiment: Cytotoxicity against human RXF393 cells assessed as cell growth at 1 uM after 48 hrs by sulforhodamine B assay relative to control; details: RXF 393, 48 h, read-out: Activity
RPMI-8226 = experiment: Cytotoxicity against human RPMI8226 cells assessed as cell growth at 10 uM after 48 hrs by sulforhodamine B assay relative to control; details: RPMI-8226, 48 h, read-out: Activity
NCI-H522 = experiment: Cytotoxicity against human NCI-H522 cells assessed as cell growth at 10 uM after 48 hrs by sulforhodamine B assay relative to control; details: NCI-H522, 48 h, read-out: Activity
HCT-116 = experiment: Cytotoxicity against human HCT116 cells assessed as cell growth at 10 uM after 48 hrs by sulforhodamine B assay relative to control; details: HCT-116, 48 h, read-out: Activity
HT-29 [15] = experiment: Cytotoxicity against human HT-29 cells assessed as cell growth at 10 uM after 48 hrs by sulforhodamine B assay relative to control; details: HT-29, 48 h, read-out: Activity
KM12 [16] = experiment: Cytotoxicity against human KM12 cells assessed as cell growth at 10 uM after 48 hrs by sulforhodamine B assay relative to control; details: KM12, 48 h, read-out: Activity
SK-OV-3 [17] = experiment: Cytotoxicity against human SKOV3 cells assessed as cell growth at 10 uM after 48 hrs by sulforhodamine B assay relative to control; details: SK-OV-3, 48 h, read-out: Activity
MDA-MB-435 = experiment: Cytotoxicity against human MDA-MB-435 cells assessed as cell growth at 100 uM after 48 hrs by sulforhodamine B assay relative to control; details: MDA-MB-435, 48 h, read-out: Activity
A498 = experiment: Cytotoxicity against human A498 cells assessed as cell growth at 100 uM after 48 hrs by sulforhodamine B assay relative to control; details: A498, 48 h, read-out: Activity
RXF 393 [18] = experiment: Cytotoxicity against human RXF393 cells assessed as cell growth at 100 uM after 48 hrs by sulforhodamine B assay relative to control; details: RXF 393, 48 h, read-out: Activity

`COc1ccc(-c2cc(/C=C/C(=O)c3ccc(N)cc3)[nH]n2)cc1OC` showed a GI50 (NCI-H226 [1]) of 2.32 µM, an LC50 (concentration killing 50% of cells) (NCI-H226 [1]) of 76.2 µM and a TGI (NCI-H226 [1]) of 7.38 µM. It also gave a GI50 (HT-29 [2]) of 2.6 µM, an LC50 (HT-29 [2]) of 58.9 µM and a TGI (HT-29 [2]) of 6.91 µM. It also gave a GI50 (KM12 [3]) of 1.68 µM, an LC50 (KM12 [3]) of 6.67 µM and a TGI (KM12 [3]) of 3.35 µM. For the same compound, the GI50 (SF-268) was 1.89 µM, the TGI (SF-268) was 4.4 µM and the CC50 (SF-268) was 11.2 µM. The GI50 (U-251) was 1.74 µM, the LC50 (U-251) was 7.69 µM and the TGI (U-251) was 3.66 µM. It also gave a GI50 (OVCAR-5) of 2.62 µM, an LC50 (OVCAR-5) of 36.3 µM and a TGI (OVCAR-5) of 7.94 µM. For the same compound, the GI50 (NCI/ADR-RES) was 6.21 µM, the LC50 (NCI/ADR-RES) was greater than 100 µM and the TGI (NCI/ADR-RES) was greater than 100 µM. The GI50 (PC-3) was 3.71 µM, the LC50 (PC-3) was greater than 100 µM and the TGI (PC-3) was 19.8 µM. For the same compound, the GI50 (Hs-578T) was 6.57 µM, the LC50 (Hs-578T) was greater than 100 µM and the TGI (Hs-578T) was greater than 100 µM. It also gave a GI50 (BT-549) of 1.5 µM, an LC50 (concentration killing 50% of cells) (BT-549) of 5.77 µM and a TGI (BT-549) of 2.94 µM. For the same compound, the growth at 0.01 µM (CCRF-CEM [4]) was 97%, the growth at 0.01 µM (SNB-19) was 96% and the growth at 0.01 µM (HT-29 [5]) was 98%. The growth at 0.01 µM (NCI-H226 [6]) was 93%, the growth at 0.01 µM (RXF 393 [7]) was 99% and the growth at 0.1 µM (CCRF-CEM [8]) was 97%. It also gave a growth at 0.1 µM (K562) of 98%, a growth at 0.1 µM (UACC-257 [9]) of 90% and a growth at 0.1 µM (OVCAR-8) of 99%. It also gave a growth at 0.1 µM (SK-OV-3 [10]) of 102%, a growth at 0.1 µM (MDA-MB-231) of 107% and a growth at 1 µM (HT-29 [11]) of 99%. For the same compound, the growth at 1 µM (KM12 [12]) was 88%, the growth at 1 µM (UACC-257 [13]) was 96% and the growth at 1 µM (UACC-62) was 95%. For the same compound, the growth at 1 µM (786-0) was 87%, the growth at 1 µM (RXF 393 [14]) was 94% and the growth at 10 µM (RPMI-8226) was -20%. For the same compound, the growth at 10 µM (NCI-H522) was -84%, the growth at 10 µM (HCT-116) was -73% and the growth at 10 µM (HT-29 [15]) was -19%. The growth at 10 µM (KM12 [16]) was -79%, the growth at 10 µM (SK-OV-3 [17]) was 29% and the growth at 100 µM (MDA-MB-435) was -72%. The growth at 100 µM (A498) was -98% and the growth at 100 µM (RXF 393 [18]) was -95%.

Compound `COc1cc2c(cc1OC)C(=O)/C(=C/c1cc(-c3ccc4c(c3)OCO4)n[nH]1)C2` has a GI50 (NCI-H226 [1]) of 1.55 µM, a TGI (NCI-H226 [1]) of 3.32 µM and a GI50 (HT-29 [2]) of 1.45 µM. The LC50 (HT-29 [2]) was 6.63 µM, the TGI (HT-29 [2]) was 3.09 µM and the GI50 (KM12 [3]) was 1.29 µM. It also gave an LC50 (KM12 [3]) of 5.75 µM, a TGI (KM12 [3]) of 2.73 µM and a GI50 (SF-268) of 1.63 µM. It also gave a TGI (SF-268) of 3.37 µM, a CC50 (SF-268) of 6.99 µM and a GI50 (U-251) of 1.09 µM. The LC50 (U-251) was 4.9 µM, the TGI (U-251) was 2.31 µM and the GI50 (OVCAR-5) was 1.56 µM. The LC50 (OVCAR-5) was 5.79 µM, the TGI (OVCAR-5) was 3 µM and the GI50 (NCI/ADR-RES) was 2.25 µM. For the same compound, the LC50 (NCI/ADR-RES) was greater than 100 µM, the TGI (NCI/ADR-RES) was 6.87 µM and the GI50 (PC-3) was 1.29 µM. The LC50 (PC-3) was 6.6 µM, the TGI (PC-3) was 2.92 µM and the GI50 (Hs-578T) was 2.61 µM. For the same compound, the LC50 (Hs-578T) was greater than 100 µM, the TGI (Hs-578T) was 8.08 µM and the GI50 (BT-549) was 1.62 µM. For the same compound, the LC50 (concentration killing 50% of cells) (BT-549) was 5.71 µM, the TGI (BT-549) was 3.04 µM and the growth at 0.01 µM (CCRF-CEM [4]) was 97%. It also gave a growth at 0.01 µM (SNB-19) of 97%, a growth at 0.01 µM (HT-29 [5]) of 98% and a growth at 0.01 µM (NCI-H226 [6]) of 97%. The growth at 0.01 µM (RXF 393 [7]) was 97%, the growth at 0.1 µM (CCRF-CEM [8]) was 96% and the growth at 0.1 µM (K562) was 94%. The growth at 0.1 µM (UACC-257 [9]) was 94%, the growth at 0.1 µM (OVCAR-8) was 98% and the growth at 0.1 µM (SK-OV-3 [10]) was 105%. It also gave a growth at 0.1 µM (MDA-MB-231) of 99%, a growth at 1 µM (HT-29 [11]) of 74% and a growth at 1 µM (KM12 [12]) of 67%. For the same compound, the growth at 1 µM (UACC-257 [13]) was 94%, the growth at 1 µM (UACC-62) was 89% and the growth at 1 µM (786-0) was 88%. For the same compound, the growth at 1 µM (RXF 393 [14]) was 80%, the growth at 10 µM (RPMI-8226) was -59% and the growth at 10 µM (NCI-H522) was -80%. It also gave a growth at 10 µM (HCT-116) of -75%, a growth at 10 µM (HT-29 [15]) of -77% and a growth at 10 µM (KM12 [16]) of -87%. It also gave a growth at 10 µM (SK-OV-3 [17]) of -18%, a growth at 100 µM (MDA-MB-435) of -95% and a growth at 100 µM (A498) of -97%. The growth at 100 µM (RXF 393 [18]) was -92%.
